In PubChem BioAssay (NCI):
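Abbreviation: GI50, concentration required for 50% inhibition of growth. TGI denotes the concentration required for complete inhibition of growth.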

Assays:
Experiment in all cases: NCI tumour cell line growth inhibition, 384-well format
RPMI-8226 leukemia = tested on: RPMI-8226 leukemia
SW-620 colon = tested on: SW-620 colon
786-0 renal = tested on: 786-0 renal
MDA-MB-231 breast = tested on: MDA-MB-231 breast
A549 NSCLC = tested on: A549 NSCLC
SR leukemia = tested on: SR leukemia
SF-295 CNS = tested on: SF-295 CNS
SF-268 CNS = tested on: SF-268 CNS
SK-MEL-2 melanoma = tested on: SK-MEL-2 melanoma
MALME-3M melanoma = tested on: MALME-3M melanoma
NCI-H226 lung = tested on: NCI-H226 lung
MDA-MB-435 melanoma = tested on: MDA-MB-435 melanoma
U251 glioblastoma = tested on: U251 glioblastoma
HCC-2998 colon = tested on: HCC-2998 colon
OVCAR-8 ovarian = tested on: OVCAR-8 ovarian
HCT-15 colon = tested on: HCT-15 colon
HT29 colon = tested on: HT29 colon
MCF7 breast = tested on: MCF7 breast
UACC-62 melanoma = tested on: UACC-62 melanoma
OVCAR-5 ovarian = tested on: OVCAR-5 ovarian
HS 578T breast = tested on: HS 578T breast
BT-549 breast = tested on: BT-549 breast
OVCAR-4 ovarian = tested on: OVCAR-4 ovarian
HOP-92 NSCLC = tested on: HOP-92 NSCLC
M14 melanoma = tested on: M14 melanoma
T-47D breast = tested on: T-47D breast
NCI-H460 NSCLC = tested on: NCI-H460 NSCLC
SK-MEL-28 melanoma = tested on: SK-MEL-28 melanoma
DU-145 prostate = tested on: DU-145 prostate
HOP-62 NSCLC = tested on: HOP-62 NSCLC
PC-3 prostate = tested on: PC-3 prostate
RXF 393 renal = tested on: RXF 393 renal
ACHN renal = tested on: ACHN renal
CAKI-1 renal = tested on: CAKI-1 renal
COLO 205 colon = tested on: COLO 205 colon
SF-539 CNS = tested on: SF-539 CNS
SN12C renal = tested on: SN12C renal
SNB-19 CNS = tested on: SNB-19 CNS
MOLT-4 leukemia = tested on: MOLT-4 leukemia
EKVX NSCLC = tested on: EKVX NSCLC
NCI-H322M lung = tested on: NCI-H322M lung
CCRF-CEM leukemia = tested on: CCRF-CEM leukemia
SNB-75 CNS = tested on: SNB-75 CNS
IGROV1 ovarian = tested on: IGROV1 ovarian
OVCAR-3 ovarian = tested on: OVCAR-3 ovarian
KM12 colon = tested on: KM12 colon
SK-OV-3 ovarian = tested on: SK-OV-3 ovarian
NCI/ADR-RES ovarian = tested on: NCI/ADR-RES ovarian
SK-MEL-5 melanoma = tested on: SK-MEL-5 melanoma
TK-10 renal = tested on: TK-10 renal
HL-60(TB) leukemia = tested on: HL-60(TB) leukemia
A498 renal = tested on: A498 renal
NCI-H522 lung = tested on: NCI-H522 lung
MDA-MB-468 breast = tested on: MDA-MB-468 breast
UACC-257 melanoma = tested on: UACC-257 melanoma
NCI-H23 lung = tested on: NCI-H23 lung

`CN(C)CCNC(=O)c1cccc2cc3ccccc3nc12` gave a GI50 (RPMI-8226 leukemia) of 506 nM, a TGI (RPMI-8226 leukemia) of 1490 nM and a GI50 (SW-620 colon) of 718 nM. The TGI (SW-620 colon) was 1990 nM, the GI50 (786-0 renal) was 1070 nM and the TGI (786-0 renal) was 3.04 µM. The GI50 (MDA-MB-231 breast) was 958 nM, the TGI (MDA-MB-231 breast) was 2220 nM and the GI50 (A549 NSCLC) was 619 nM. The TGI (A549 NSCLC) was 1900 nM, the GI50 (SR leukemia) was 198 nM and the TGI (SR leukemia) was 349 nM. For the same compound, the GI50 (SF-295 CNS) was 974 nM, the TGI (SF-295 CNS) was 2380 nM and the GI50 (SF-268 CNS) was 1150 nM. It also gave a TGI (SF-268 CNS) of 2470 nM, a GI50 (SK-MEL-2 melanoma) of 3.28 µM and a TGI (SK-MEL-2 melanoma) of 4.78 µM. It also gave a GI50 (MALME-3M melanoma) of 932 nM, a TGI (MALME-3M melanoma) of 2110 nM and a GI50 (NCI-H226 lung) of 898 nM. The TGI (NCI-H226 lung) was 2440 nM, the GI50 (MDA-MB-435 melanoma) was 1640 nM and the TGI (MDA-MB-435 melanoma) was 3.23 µM. For the same compound, the GI50 (U251 glioblastoma) was 741 nM, the TGI (U251 glioblastoma) was 2680 nM and the GI50 (HCC-2998 colon) was 1460 nM. The TGI (HCC-2998 colon) was 2860 nM, the GI50 (OVCAR-8 ovarian) was 611 nM and the TGI (OVCAR-8 ovarian) was 1840 nM. It also gave a GI50 (HCT-15 colon) of 628 nM, a TGI (HCT-15 colon) of 2020 nM and a GI50 (HT29 colon) of 996 nM. The TGI (HT29 colon) was 2210 nM, the GI50 (MCF7 breast) was 1120 nM and the TGI (MCF7 breast) was 4.17 µM. The GI50 (UACC-62 melanoma) was 1000 nM, the TGI (UACC-62 melanoma) was 2200 nM and the GI50 (OVCAR-5 ovarian) was 1440 nM. It also gave a TGI (OVCAR-5 ovarian) of 3.69 µM, a GI50 (HS 578T breast) of 287 nM and a TGI (HS 578T breast) of 883 nM. The GI50 (BT-549 breast) was 532 nM, the TGI (BT-549 breast) was 1680 nM and the GI50 (OVCAR-4 ovarian) was 1790 nM. The TGI (OVCAR-4 ovarian) was 3.61 µM, the GI50 (HOP-92 NSCLC) was 688 nM and the TGI (HOP-92 NSCLC) was 2150 nM. It also gave a GI50 (M14 melanoma) of 1140 nM, a TGI (M14 melanoma) of 2380 nM and a GI50 (T-47D breast) of 2050 nM. For the same compound, the TGI (T-47D breast) was 4.09 µM, the GI50 (NCI-H460 NSCLC) was 375 nM and the TGI (NCI-H460 NSCLC) was 1250 nM. For the same compound, the GI50 (SK-MEL-28 melanoma) was 1620 nM, the TGI (SK-MEL-28 melanoma) was 3.01 µM and the GI50 (DU-145 prostate) was 1520 nM. The TGI (DU-145 prostate) was 3.12 µM, the GI50 (HOP-62 NSCLC) was 494 nM and the TGI (HOP-62 NSCLC) was 1850 nM. The GI50 (PC-3 prostate) was 1460 nM, the TGI (PC-3 prostate) was 3.29 µM and the GI50 (RXF 393 renal) was 1120 nM. It also gave a TGI (RXF 393 renal) of 2360 nM, a GI50 (ACHN renal) of 961 nM and a TGI (ACHN renal) of 2280 nM. The GI50 (CAKI-1 renal) was 1020 nM, the TGI (CAKI-1 renal) was 2490 nM and the GI50 (COLO 205 colon) was 336 nM. The TGI (COLO 205 colon) was 651 nM, the GI50 (SF-539 CNS) was 449 nM and the TGI (SF-539 CNS) was 1510 nM. It also gave a GI50 (SN12C renal) of 1260 nM, a TGI (SN12C renal) of 2740 nM and a GI50 (SNB-19 CNS) of 784 nM. For the same compound, the TGI (SNB-19 CNS) was 2690 nM, the GI50 (MOLT-4 leukemia) was 169 nM and the TGI (MOLT-4 leukemia) was 310 nM. The GI50 (EKVX NSCLC) was 1740 nM, the TGI (EKVX NSCLC) was 3.67 µM and the GI50 (NCI-H322M lung) was 1740 nM. For the same compound, the TGI (NCI-H322M lung) was 3.53 µM, the GI50 (CCRF-CEM leukemia) was 246 nM and the TGI (CCRF-CEM leukemia) was 673 nM. It also gave a GI50 (SNB-75 CNS) of 806 nM, a TGI (SNB-75 CNS) of 2130 nM and a GI50 (IGROV1 ovarian) of 1140 nM. It also gave a TGI (IGROV1 ovarian) of 2460 nM, a GI50 (OVCAR-3 ovarian) of 1340 nM and a TGI (OVCAR-3 ovarian) of 2810 nM. The GI50 (KM12 colon) was 862 nM, the TGI (KM12 colon) was 2440 nM and the GI50 (SK-OV-3 ovarian) was 1200 nM. It also gave a TGI (SK-OV-3 ovarian) of 3.29 µM, a GI50 (NCI/ADR-RES ovarian) of 876 nM and a TGI (NCI/ADR-RES ovarian) of 2270 nM. It also gave a GI50 (SK-MEL-5 melanoma) of 1180 nM, a TGI (SK-MEL-5 melanoma) of 2420 nM and a GI50 (TK-10 renal) of 1250 nM. It also gave a TGI (TK-10 renal) of 2950 nM, a GI50 (HL-60(TB) leukemia) of 252 nM and a TGI (HL-60(TB) leukemia) of 462 nM. The GI50 (A498 renal) was 539 nM, the TGI (A498 renal) was 2000 nM and the GI50 (NCI-H522 lung) was 1240 nM. The TGI (NCI-H522 lung) was 2510 nM, the GI50 (MDA-MB-468 breast) was 411 nM and the TGI (MDA-MB-468 breast) was 791 nM. It also gave a GI50 (UACC-257 melanoma) of 1650 nM, a TGI (UACC-257 melanoma) of 3.05 µM and a GI50 (NCI-H23 lung) of 1260 nM. For the same compound, the TGI (NCI-H23 lung) was 2570 nM.
